{"source": "ChEMBL document CHEMBL1130130", "about": "“New approaches to antiglaucoma therapy” (1997)", "test_system": "Oryctolagus cuniculus", "assay": "Compound was evaluated for ocular hypotensive effects (intraocular pressure, IOP) by administering 0.5% of the drug twice daily", "assay_type": "functional, Eye", "data": [{"smiles": "CC(C)(C)NC[C@H](O)COc1nsnc1N1CCOCC1", "note": "[TIMOLOL]", "values": [{"measurement": "Activity", "result": 21, "unit": "%"}]}]}
